Test results published in US12390536B2, “Antibody-drug complex containing toll-like receptor 7/8 dual agonist compound” (ASTELLAS PHARMA INC., priority 2022, dated 2025).
Where a name gives a salt, the structure may show the parent alone.

Key:
[1] = target: T1, human TLR7 (Homo sapiens, UniProt Q9NYK1); experiment: TLR7/8 reporter assay (HEK293, NFκB Nanoluc luciferase reporter), human TLR7; type: cell-based; conditions: 24-hour incubation; read-out: hTLR7 EC50
T1 construct: expressed in transfected cells
T1 sequence (Q9NYK1 27-1049): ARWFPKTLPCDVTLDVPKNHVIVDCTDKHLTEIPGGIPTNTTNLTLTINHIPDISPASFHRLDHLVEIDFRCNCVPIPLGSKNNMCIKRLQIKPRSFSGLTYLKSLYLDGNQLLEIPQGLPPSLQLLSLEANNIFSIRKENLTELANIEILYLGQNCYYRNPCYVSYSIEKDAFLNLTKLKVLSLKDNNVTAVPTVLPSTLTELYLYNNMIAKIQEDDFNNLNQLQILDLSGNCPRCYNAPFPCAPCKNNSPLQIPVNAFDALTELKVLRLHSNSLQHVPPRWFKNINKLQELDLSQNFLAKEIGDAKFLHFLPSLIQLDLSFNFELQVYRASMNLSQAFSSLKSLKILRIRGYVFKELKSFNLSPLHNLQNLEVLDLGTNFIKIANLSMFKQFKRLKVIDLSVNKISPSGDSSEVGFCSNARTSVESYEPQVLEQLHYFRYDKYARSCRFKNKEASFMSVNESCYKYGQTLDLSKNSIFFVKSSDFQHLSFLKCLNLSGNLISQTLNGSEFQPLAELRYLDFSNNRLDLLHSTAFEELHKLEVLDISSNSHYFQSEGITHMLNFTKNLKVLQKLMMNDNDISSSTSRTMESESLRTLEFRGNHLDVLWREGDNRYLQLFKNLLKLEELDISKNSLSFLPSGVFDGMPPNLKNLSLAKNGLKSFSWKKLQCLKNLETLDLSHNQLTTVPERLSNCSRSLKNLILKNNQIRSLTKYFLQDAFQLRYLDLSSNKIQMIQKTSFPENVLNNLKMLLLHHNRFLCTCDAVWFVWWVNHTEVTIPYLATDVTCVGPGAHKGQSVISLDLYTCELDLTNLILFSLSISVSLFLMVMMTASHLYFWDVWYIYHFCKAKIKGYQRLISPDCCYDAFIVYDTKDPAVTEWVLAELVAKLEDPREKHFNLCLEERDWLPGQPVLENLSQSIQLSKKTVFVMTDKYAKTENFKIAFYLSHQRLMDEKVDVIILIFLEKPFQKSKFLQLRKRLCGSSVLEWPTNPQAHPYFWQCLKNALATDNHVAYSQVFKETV
Protocol: (§1) HEK293 cells (ATCC, #CRL-1573) were co-transfected with an expression vector having a nucleotide sequence encoding a TLR (human TLR7, human TLR8 or mouse TLR7) protein and a Nanoluc PEST luciferase reporter vector having an NFκB response element sequence (Genbank: JQ513377 bases 33 to 84) integrated therein. Thereafter, the transfected cells were cultured in DMEM (Sigma-Aldrich, #D5796-500 mL) containing Geneticin (Gibco, #10131-027) at a final concentration of 800 μg/mL, Hygromycin B (Invitrogen, #10687010) at a final concentration of 500 μg/mL, penicillin streptomycin (Gibco, #15070-063) at a final concentration of 1% and a 10% fetal bovine serum (FBS) (HyClone, #SH30084.03) to obtain a stable cell line for expression.
(§2) To reporter cells obtained above, DMEM containing 10% FBS was added to prepare a suspension of 1×10^5 cells/mL. The suspension was added to the wells of a 384-well white plate coated with collagen I (hereinafter referred to as “384-well plate”, Corning, #356703) at a rate of 20 μL per well. The cells were cultured in the conditions of 37° C. and 5% CO2, overnight (18 hours) and allowed to adhere to the plate. A test sample was dissolved in DMSO. The solution was diluted by adding DMEM medium containing 10% FBS to the solution such that the concentration becomes 5-fold as high as a final concentration. The diluted DMEM medium was added to the wells of the 384-well plate at a ratio of 5 μL/well. After the medium was further incubated in the conditions of 37° C. and 5% CO2 for 24 hours, the plate was taken out and allowed to stand still at room temperature for 10 minutes. Thereafter, chemiluminescence was measured using Nano-Glo Luciferase Assay System (Promega, #N1120) and EnVision 2104 (PerkinElmer) plate reader. A dose-response curve was prepared for each test sample and the EC50 value was obtained as a concentration at 50% of the maximum signal. In the table, hTLR7 represents human TLR7 and hTLR8 represents human TLR8; and mTLR7 represents mouse TLR7. A data item attached with an asterisk (*) indicates the result of 7 hour-incubation and other data items are the results of 24-hour incubation.

[2] = target: T2, mouse TLR7 (Mus musculus, UniProt P58681); experiment: TLR7/8 reporter assay (HEK293, NFκB Nanoluc luciferase reporter), mouse TLR7; type: cell-based; conditions: 24-hour incubation; read-out: mTLR7 EC50
T2 construct: expressed in transfected cells
T2 sequence (P58681 27-1050): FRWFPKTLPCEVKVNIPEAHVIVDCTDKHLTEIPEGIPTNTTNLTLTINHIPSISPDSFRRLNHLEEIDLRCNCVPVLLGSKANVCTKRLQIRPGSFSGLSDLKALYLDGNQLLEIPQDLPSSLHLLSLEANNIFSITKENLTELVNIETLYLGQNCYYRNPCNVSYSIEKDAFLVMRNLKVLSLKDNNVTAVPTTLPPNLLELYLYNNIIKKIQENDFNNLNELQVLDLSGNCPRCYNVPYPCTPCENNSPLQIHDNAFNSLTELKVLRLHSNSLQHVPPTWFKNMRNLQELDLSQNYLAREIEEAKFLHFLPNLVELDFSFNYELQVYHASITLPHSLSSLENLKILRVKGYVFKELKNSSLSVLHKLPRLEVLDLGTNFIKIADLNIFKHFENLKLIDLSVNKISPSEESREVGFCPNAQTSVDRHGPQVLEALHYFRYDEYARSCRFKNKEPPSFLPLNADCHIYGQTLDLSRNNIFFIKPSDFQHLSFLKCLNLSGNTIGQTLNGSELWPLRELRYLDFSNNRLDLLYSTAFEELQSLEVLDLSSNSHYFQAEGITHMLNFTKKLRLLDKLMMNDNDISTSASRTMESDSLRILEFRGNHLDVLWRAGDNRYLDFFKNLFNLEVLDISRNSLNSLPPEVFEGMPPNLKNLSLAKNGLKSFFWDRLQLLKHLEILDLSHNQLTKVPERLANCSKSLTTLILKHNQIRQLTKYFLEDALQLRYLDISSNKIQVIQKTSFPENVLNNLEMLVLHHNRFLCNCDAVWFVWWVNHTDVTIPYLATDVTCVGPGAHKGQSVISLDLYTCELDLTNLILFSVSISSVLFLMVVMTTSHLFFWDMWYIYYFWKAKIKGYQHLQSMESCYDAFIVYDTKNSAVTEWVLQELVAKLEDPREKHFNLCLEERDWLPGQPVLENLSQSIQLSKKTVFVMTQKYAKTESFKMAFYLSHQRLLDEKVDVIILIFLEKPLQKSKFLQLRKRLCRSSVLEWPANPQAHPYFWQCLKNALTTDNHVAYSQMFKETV
Protocol: as §1, §2

| EC50 [1] | EC50 [2] | Compound |
| --- | --- | --- |
| 45 nM | 26.7 nM | CCCCCSc1nc(N)nc2ccn(Cc3ccc(CN4CCC[C@H]4CO)cc3OC)c12 [Ex5, {(2S)-1-[(4-{[2-amino-4-(pentylsulfanyl)-5H-pyrrolo[3,2-d]pyrimidin-5-yl]methyl}-3-methoxyphenyl)methyl]pyrrolidin-2-yl}methanol] |
| 17.8 nM | 9.2 nM | COc1cc(CN2CCNC[C@H]2CF)ccc1Cn1ccc2nc(N)nc(SCc3cc(C)on3)c21 [Ex11] |
| 23.3 nM | 17.4 nM | CCCCCSc1nc(N)nc2ccn(Cc3ccc(CN4CC[C@H]4CO)cc3OC)c12 [Ex13] |
| 3.47 nM | 6.17 nM | CCCCCNc1nc(N)nc2ccn(Cc3ccc(CNC4CC4)cc3OC)c12 [Ex3, 5-({4-[(cyclopropylamino)methyl]-2-methoxyphenyl}methyl)-N^4-pentyl-5H-pyrrolo[3,2-d]pyrimidine-2,4-diamine] |
| 2.78 nM | 4.81 nM | CCCCCNc1nc(N)nc2ccn(Cc3ccc(CC4CCNCC4)cc3OC)c12 [Ex9, 5-({2-methoxy-4-[(piperidin-4-yl)methyl]phenyl}methyl)-N^4-pentyl-5H-pyrrolo[3,2-d]pyrimidine-2,4-diamine] |
| 54.2 nM | 39.9 nM | CCCCCSc1nc(N)nc2ccn(Cc3ccc(CN4CCNCC4)cc3OC)c12 [Ex4, 5-({2-methoxy-4-[(piperazin-1-yl)methyl]phenyl}methyl)-4-(pentylsulfanyl)-5H-pyrrolo[3,2-d]pyrimidin-2-amine] |
| 2.52 nM | 7.11 nM | CCCCCNc1nc(N)nc2c(Cl)cn(Cc3ccc(CN4CC[C@H]4CO)cc3OC)c12 [Ex17] |
| 1.12 nM | 2.92 nM | CCCCCNc1nc(N)nc2ccn(Cc3ccc(CN4CCNC[C@H]4CF)cc3OC)c12 [Ex1, 5-[(4-{[(2S)-2-(fluoromethyl)piperazin-1-yl]methyl}-2-methoxyphenyl)methyl]-N^4-pentyl-5H-pyrrolo[3,2-d]pyrimidine-2,4-diamine] |
| 1.87 nM | 3.58 nM | CCCCCNc1nc(N)nc2ccn(Cc3ccc(CNCC4CCC4)cc3OC)c12 [Ex12] |
| 2.74 nM | 8.75 nM | CCCCCNc1nc(N)nc2ccn(Cc3ccc(CN4CCNC[C@@H]4CF)cc3OC)c12 [Ex10, 5-[(4-{[(2R)-2-(fluoromethyl)piperazin-1-yl]methyl}-2-methoxyphenyl)methyl]-N^4-pentyl-5H-pyrrolo[3,2-d]pyrimidine-2,4-diamine] |
| 1.77 nM | 5.36 nM | CCCCCNc1nc(N)nc2ccn(Cc3ccc(CN4CCN[C@@H](CF)C4)cc3OC)c12 [Ex2, 5-[(4-{[(3R)-3-(fluoromethyl)piperazin-1-yl]methyl}-2-methoxyphenyl)methyl]-N^4-pentyl-5H-pyrrolo[3,2-d]pyrimidine-2,4-diamine (trifluoroacetic acid) salt] |
| 6.57 nM | 13.9 nM | CCCCCNc1nc(N)nc2c(Cl)cn(Cc3ccc(CN4CCC[C@H]4C(C)(C)O)cc3OC)c12 [Ex18] |
| 3.22 nM | 10.1 nM | CCCCCNc1nc(N)nc2c(Cl)cn(Cc3ccc(CN4CCC[C@H]4CO)cc3OC)c12 [Ex6, {(2S)-1-[(4-{[2-amino-7-chloro-4-(pentylamino)-5H-pyrrolo[3,2-d]pyrimidin-5-yl]methyl}-3-methoxyphenyl)methyl]pyrrolidin-2-yl}methanol] |
| 28.8 nM | 27.3 nM | CCCCCSc1nc(N)nc2ccn(Cc3ccc(CN4CCC(O)CC4)cc3OC)c12 [Ex14] |
| 8.1 nM | 21.5 nM | CCCCCNc1nc(N)nc2c(Br)cn(Cc3ccc(CN4CCC[C@H]4CO)cc3OC)c12 [Ex7, {(2S)-1-[(4-{[2-amino-7-bromo-4-(pentylamino)-5H-pyrrolo[3,2-d]pyrimidin-5-yl]methyl}-3-methoxyphenyl)methyl]pyrrolidin-2-yl}methanol] |
| 138 nM | 111 nM | CCCCCSc1nc(N)nc2ccn(Cc3ccc(CN4CC[C@@H](CN)C4)cc3OC)c12 [Ex15] |
| 11.3 nM | 23.5 nM | CCCCCNc1nc(N)nc2cc(C)n(Cc3ccc(CN4CCNCC4)cc3OC)c12 [Ex8, 5-({2-methoxy-4-[(piperazin-1-yl)methyl]phenyl}methyl)-6-methyl-N^4-pentyl-5H-pyrrolo[3,2-d]pyrimidine-2,4-diamine hydrochloride] |
